Measurements from PubChem BioAssay AID248 (DTP/NCI, 2004).
“And” between values parts separate entries of the source, which are not always exact repeats. Equal entries are not always repeated. Toxic doses and inconclusive results are not listed.

Tested on: L1210 leukemia ip in BDF1 mice, survival T/C
Assay: NCI In Vivo Anticancer Drug Screen. Data for tumor model L1210 Leukemia (intraperitoneal) in B6D2F1 (BDF1) mice
Details: endpoint: mean survival time, higher = longer survival
Outline: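 In this screen, tumor-bearing mice given compound are compared to those given vehicle, and their survival values are reported as a treated-to-control quotient.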

[1] = dose: 100.0 mg/kg/injection, schedule: Q01DX001 (ip), vehicle: carboxymethylcellulose (CMC)
[2] = dose: 400.0 mg/kg/injection, schedule: Q01DX001 (ip), vehicle: carboxymethylcellulose (CMC)
[3] = dose: 200.0 mg/kg/injection, schedule: Q01DX001 (ip), vehicle: saline
[4] = dose: 400.0 mg/kg/injection, schedule: Q01DX001 (ip), vehicle: saline
[5] = dose: 50.0 mg/kg/injection, schedule: Q01DX001 (ip), vehicle: saline
[6] = dose: 100.0 mg/kg/injection, schedule: Q01DX001 (ip), vehicle: saline
[7] = dose: 200.0 mg/kg/injection, schedule: Q01DX001 (ip), vehicle: carboxymethylcellulose (CMC)
[8] = dose: 100.0 mg/kg/injection, schedule: Q04DX003 (ip), vehicle: saline
[9] = dose: 200.0 mg/kg/injection, schedule: Q04DX003 (ip), vehicle: saline
[10] = dose: 400.0 mg/kg/injection, schedule: Q04DX003 (ip), vehicle: saline

CCOc1ccc(Nc2nc(=O)[nH]c3ccccc23)cc1CN(CCCl)CCCl
T/C (dose: 25.0 mg/kg/injection, schedule: Q04DX002 (ip), vehicle: saline): 104 % of control | T/C (dose: 50.0 mg/kg/injection, schedule: Q04DX002 (ip), vehicle: saline): 100 % of control | T/C (dose: 100.0 mg/kg/injection, schedule: Q04DX002 (ip), vehicle: saline): 111 % of control | T/C (dose: 200.0 mg/kg/injection, schedule: Q04DX002 (ip), vehicle: saline): 95 % of control and 111 % of control | T/C (dose: 400.0 mg/kg/injection, schedule: Q04DX002 (ip), vehicle: saline): 95 % of control

N#C/C(=C/c1c(Cl)cccc1Cl)C(N)=O
T/C (dose: 75.0 mg/kg/injection, schedule: Q01DX001 (ip), vehicle: saline): 93 % of control

[O-][N+]1(c2ccc(Cl)cc2)CC[N+]([O-])(c2ccc(Cl)cc2)CC1 (stereo unspecified)
T/C (dose: 100.0 mg/kg/injection, schedule: Q04DX003 (ip), vehicle: Klucel (hydroxypropylcellulose) (HPC)): 96 % of control | T/C (dose: 200.0 mg/kg/injection, schedule: Q04DX003 (ip), vehicle: Klucel (hydroxypropylcellulose) (HPC)): 94 % of control | T/C (dose: 400.0 mg/kg/injection, schedule: Q04DX003 (ip), vehicle: Klucel (hydroxypropylcellulose) (HPC)): 100 % of control

O=[N+]([O-])c1ccc(C2ON2C2CCCCC2)cc1 (stereo unspecified)
T/C [1]: 87 % of control | T/C [2]: 108 % of control

NC(N)=NN=C(CO)CO
T/C (dose: 1.0 mg/kg/injection, schedule: Q01DX Z (ip), vehicle: methylcellulose (MC)): 103 % of control | T/C (dose: 2.0 mg/kg/injection, schedule: Q01DX Z (ip), vehicle: methylcellulose (MC)): 111 % of control | T/C (dose: 4.0 mg/kg/injection, schedule: Q01DX Z (ip), vehicle: methylcellulose (MC)): 109 % of control | T/C (dose: 8.0 mg/kg/injection, schedule: Q01DX Z (ip), vehicle: methylcellulose (MC)): 117 % of control | T/C (dose: 15.0 mg/kg/injection, schedule: Q01DX Z (oral), vehicle: methylcellulose (MC)): 89 % of control | T/C (dose: 30.0 mg/kg/injection, schedule: Q01DX Z (ip), vehicle: methylcellulose (MC)): 172 % of control | T/C (dose: 30.0 mg/kg/injection, schedule: Q01DX Z (ip), vehicle: saline): 110 % of control | T/C (dose: 30.0 mg/kg/injection, schedule: Q01DX Z (oral), vehicle: methylcellulose (MC)): 102 % of control | T/C (dose: 60.0 mg/kg/injection, schedule: Q01DX Z (ip), vehicle: saline): 108 % of control | T/C (dose: 60.0 mg/kg/injection, schedule: Q01DX Z (oral), vehicle: methylcellulose (MC)): 93 % of control | T/C (dose: 120.0 mg/kg/injection, schedule: Q01DX Z (ip), vehicle: saline): 103 % of control | T/C (dose: 120.0 mg/kg/injection, schedule: Q01DX Z (oral), vehicle: methylcellulose (MC)): 100 % of control | T/C (dose: 120.0 mg/kg/injection, schedule: Q01DX Z (oral), vehicle: saline): 100 % of control | T/C (dose: 240.0 mg/kg/injection, schedule: Q01DX Z (oral), vehicle: saline): 100 % of control | T/C (dose: 480.0 mg/kg/injection, schedule: Q01DX Z (oral), vehicle: saline): 101 % of control | T/C (dose: 960.0 mg/kg/injection, schedule: Q01DX Z (oral), vehicle: saline): 101 % of control

Cc1cccc(N(CCOC(=O)Nc2cccc(Cl)c2)CCOC(=O)Nc2cccc(Cl)c2)c1
T/C [3]: 100 % of control | T/C [4]: 89 % of control

O=C(O)CC(C(=O)O)c1ccccc1 (stereo unspecified)
T/C (dose: 100.0 mg/kg/injection, schedule: Q04DX003 (ip), vehicle: saline with Tween-80): 88 % of control | T/C (dose: 200.0 mg/kg/injection, schedule: Q04DX003 (ip), vehicle: saline with Tween-80): 103 % of control | T/C (dose: 400.0 mg/kg/injection, schedule: Q04DX003 (ip), vehicle: saline with Tween-80): 106 % of control

COc1cc(CN)cc(OC)c1OC
T/C [5]: 100 % of control | T/C [6]: 96 % of control | T/C [3]: 96 % of control | T/C [4]: 100 % of control

Nc1ccc(S(=O)(=O)c2cc(O)ccc2O)cc1
T/C [1]: 101 % of control | T/C [7]: 100 % of control | T/C [2]: 97 % of control

Cc1cc(C)c(C(C)(CS(C)(=O)=O)CS(C)(=O)=O)c(C)c1C(C)(CS(C)(=O)=O)CS(C)(=O)=O
T/C (dose: 100.0 mg/kg/injection, schedule: Q01DX009 (ip), vehicle: Klucel (hydroxypropylcellulose) (HPC)): 105 % of control | T/C (dose: 200.0 mg/kg/injection, schedule: Q01DX009 (ip), vehicle: Klucel (hydroxypropylcellulose) (HPC)): 102 % of control | T/C (dose: 400.0 mg/kg/injection, schedule: Q01DX009 (ip), vehicle: Klucel (hydroxypropylcellulose) (HPC)): 105 % of control

CC12CC3CC(C1)CC(CC(N)=O)(C3)C2
T/C [8]: 98 % of control | T/C [9]: 103 % of control | T/C [10]: 98 % of control

OCC(F)(F)C(F)F
T/C [5]: 91 % of control | T/C [6]: 94 % of control | T/C [3]: 91 % of control | T/C [4]: 100 % of control

CCC1(C)NC(=O)NC1=O (stereo unspecified)
T/C (dose: 50.0 mg/kg/injection, schedule: Q01DX009 (ip), vehicle: saline): 100 % of control | T/C [6]: 112 % of control | T/C (dose: 100.0 mg/kg/injection, schedule: Q01DX009 (ip), vehicle: saline): 98 % of control | T/C [8]: 106 % of control | T/C [3]: 102 % of control | T/C (dose: 200.0 mg/kg/injection, schedule: Q01DX009 (ip), vehicle: saline): 111 % of control | T/C [9]: 101 % of control | T/C [4]: 100 % of control | T/C (dose: 400.0 mg/kg/injection, schedule: Q01DX009 (ip), vehicle: saline): 109 % of control | T/C [10]: 101 % of control

CC(C)C(Br)C(=O)NC(Cc1ccccc1)C(=O)O (stereo unspecified)
T/C (dose: 100.0 mg/kg/injection, schedule: Q01DX009 (ip), vehicle: saline with Tween-80): 96 % of control | T/C (dose: 200.0 mg/kg/injection, schedule: Q01DX009 (ip), vehicle: saline with Tween-80): 96 % of control | T/C (dose: 400.0 mg/kg/injection, schedule: Q01DX009 (ip), vehicle: saline with Tween-80): 92 % of control

Cc1cc(NC(=O)N(CCCl)N=O)c(C)cc1NC(=O)c1ccccc1
T/C (dose: 4.2 mg/kg/injection, schedule: Q01DX009 (ip), vehicle: carboxymethylcellulose (CMC)): 124 % of control | T/C (dose: 9.6 mg/kg/injection, schedule: Q01DX001 (ip), vehicle: carboxymethylcellulose (CMC)): 111 % of control | T/C (dose: 14.0 mg/kg/injection, schedule: Q01DX009 (ip), vehicle: other): 186 % of control | T/C (dose: 22.0 mg/kg/injection, schedule: Q01DX009 (ip), vehicle: other): 196 % of control | T/C (dose: 33.0 mg/kg/injection, schedule: Q01DX009 (ip), vehicle: other): 213 % of control | T/C (dose: 50.0 mg/kg/injection, schedule: Q01DX009 (ip), vehicle: carboxymethylcellulose (CMC)): 180 % of control | T/C (dose: 58.0 mg/kg/injection, schedule: Q01DX009 (ip), vehicle: carboxymethylcellulose (CMC)): 175 % of control | T/C (dose: 75.0 mg/kg/injection, schedule: Q01DX001 (ip), vehicle: carboxymethylcellulose (CMC)): 159 % of control | T/C (dose: 75.0 mg/kg/injection, schedule: Q01DX009 (ip), vehicle: carboxymethylcellulose (CMC)): 193 % of control | T/C (dose: 88.0 mg/kg/injection, schedule: Q01DX009 (ip), vehicle: carboxymethylcellulose (CMC)): 190 % of control | T/C (dose: 120.0 mg/kg/injection, schedule: Q01DX001 (ip), vehicle: carboxymethylcellulose (CMC)): 150 % of control | T/C (dose: 132.0 mg/kg/injection, schedule: Q01DX009 (ip), vehicle: carboxymethylcellulose (CMC)): 228 % of control | T/C (dose: 177.0 mg/kg/injection, schedule: Q01DX001 (ip), vehicle: carboxymethylcellulose (CMC)): 153 % of control | T/C (dose: 200.0 mg/kg/injection, schedule: Q01DX009 (ip), vehicle: carboxymethylcellulose (CMC)): 163 % of control | T/C (dose: 266.0 mg/kg/injection, schedule: Q01DX001 (ip), vehicle: carboxymethylcellulose (CMC)): 162 % of control | T/C (dose: 266.0 mg/kg/injection, schedule: Q01DX001 (ip), vehicle: other): 91 % of control | T/C [2]: 245 % of control | T/C (dose: 600.0 mg/kg/injection, schedule: Q01DX001 (ip), vehicle: carboxymethylcellulose (CMC)): 219 % of control

O=C(O)c1cccc(CCl)c1
T/C (dose: 100.0 mg/kg/injection, schedule: Q04DX002 (ip), vehicle: saline with Tween-80): 95 % of control

CCCCCS(=O)(=O)N1CCCC1
T/C (dose: 100.0 mg/kg/injection, schedule: Q04DX002 (ip), vehicle: Klucel (hydroxypropylcellulose) (HPC)): 107 % of control | T/C (dose: 200.0 mg/kg/injection, schedule: Q04DX002 (ip), vehicle: Klucel (hydroxypropylcellulose) (HPC)): 103 % of control | T/C (dose: 400.0 mg/kg/injection, schedule: Q04DX002 (ip), vehicle: Klucel (hydroxypropylcellulose) (HPC)): 111 % of control

CCn1c2ccccc2c2cc(N=Cc3ccc(N(CCCl)CCCl)cc3C)ccc21
T/C (dose: 50.0 mg/kg/injection, schedule: Q01DX001 (ip), vehicle: carboxymethylcellulose (CMC)): 103 % of control | T/C [1]: 103 % of control | T/C [7]: 117 % of control | T/C [2]: 100 % of control

CCCC1(C(=O)OCC)CCCC1=O (stereo unspecified)
T/C [1]: 95 % of control | T/C [7]: 90 % of control | T/C [2]: 92 % of control
